Test results from US12122785B2, “Substituted pyridines, pyridazines, pyrimidines, and 1,2,4-triazines as TYK2 inhibitors” (Sudo Biosciences Limited, priority 2021, dated 2024).

Legend:
[1] = system: TYK2 pseudokinase (JH2); IL-23-stimulated HEK-Blue IL-23 cells; assay: HEK-Blue IL-23 reporter assay (STAT3-inducible SEAP) for profiling TYK2 pseudokinase (JH2) inhibition; type: cell-based; settings: 10 ng/mL human recombinant IL-23, SEAP readout, read-out: IL23 (TYK2 inhibitory activity, IC50)
Procedure, shortened: (§1)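 Cells plated 20-22 h at 37 °C, 5% CO2 in DMEM with 10% heat-inactivated FBS, then pretreated with serially diluted compound for 60 min. Stimulation: 10 ng/mL human recombinant IL-23 for 22-24 h, or 1 ng/mL human recombinant IFNα for 16-18 h. SEAP induction read with QUANTI-Blue.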

[2] = system: TYK2 pseudokinase (JH2); IFNα-stimulated HEK-Blue IFNα/β cells; assay: HEK-Blue IFNα/β reporter assay (STAT1-inducible SEAP) for profiling TYK2 pseudokinase (JH2) inhibition; type: cell-based; settings: 1 ng/mL human recombinant IFNα, SEAP readout, read-out: IFNα (TYK2 inhibitory activity, IC50)
Procedure, shortened: as §1

[3] = target: T1, TYK2 kinase domain (JH1) (Homo sapiens, UniProt P29597); assay: HTRF-based selectivity assay, TYK2 catalytic domain; type: biochemical; settings: 20 μM ATP
T1 construct: recombinant purified His or GST-tagged catalytic domain for each enzyme; made in house
T1 sequence (P29597 897-1176 limits assumed): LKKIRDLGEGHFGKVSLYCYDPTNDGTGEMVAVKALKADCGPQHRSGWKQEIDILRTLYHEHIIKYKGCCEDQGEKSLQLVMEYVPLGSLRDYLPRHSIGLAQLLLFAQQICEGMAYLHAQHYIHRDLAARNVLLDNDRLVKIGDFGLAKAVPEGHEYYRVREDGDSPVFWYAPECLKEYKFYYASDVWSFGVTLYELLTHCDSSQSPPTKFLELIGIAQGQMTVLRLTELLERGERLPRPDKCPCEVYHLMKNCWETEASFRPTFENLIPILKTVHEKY
Method: (§2) Example B-2: HTRF-Based Selectivity Assay
(§3) The ability of compounds to inhibit the activity of JAK1, JAK2, JAK3 and TYK2 is measured using a recombinant purified His or GST-tagged catalytic domain for each enzyme (JAK1, JAK2 and TYK2 are generated in-house; JAK3 was purchased from Carna biosciences, Cat #08-046) in an HTRF format biochemical assay. The reactions employs a commercial peptide substrate from Cisbio (Cat #62TK0PEC). The basic assay protocol is as follows: first, 2.5 μL of diluted compounds (4×) in DMSO are dispensed into a 384-well Optiplate. Next, 2.5 μL of enzyme (final concentrations for enzymes are: TYK2—700 ng/mL, JAK1—80.6 ng/mL, JAK2—2.1 ng/mL and JAK3—171.8 ng/mL) is added and incubated at RT for 5-20 min. Finally, 5 μl of mixture of 2×ATP [Final concentration 20 μM for TYK2, 21.43 μM for JAK1, 14.7 μM for JAK2 and 2.12 μM for JAK3]+2× Substrate [Final concentration 217 nM for TYK2, 454.7 nM for JAK1, 200 nM for JAK2 and 257.4 nM for JAK3] is added to 384 well Optiplate. Composition of Kinase assay buffer used in the assay is as follows: HEPES 50 mM, EGTA 1 mM, MgCl2 10 mM, DTT 2 mM, Tween-20 0.01% and water. Then the plates are shaken and then incubated at 26.5° C. for 60 min.

[4] = target: T2, JAK1 kinase domain (JH1) (Homo sapiens, UniProt P23458); assay: HTRF-based selectivity assay, JAK1 catalytic domain; type: biochemical; settings: 21.43 μM ATP, read-out: JAK-JHI (IC50)
T2 construct: recombinant purified His or GST-tagged catalytic domain for each enzyme; made in house
Method: as §2, §3

[5] = target: T3, JAK2 kinase domain (JH1) (Homo sapiens, UniProt O60674); assay: HTRF-based selectivity assay, JAK2 catalytic domain; type: biochemical; settings: 14.7 μM ATP
T3 construct: recombinant purified His or GST-tagged catalytic domain for each enzyme; made in house
Method: as §2, §3

[6] = target: T4, JAK3 kinase domain (JH1) (Homo sapiens, UniProt P52333); assay: HTRF-based selectivity assay, JAK3 catalytic domain; type: biochemical; settings: 2.12 μM ATP
T4 construct: recombinant purified His or GST-tagged catalytic domain for each enzyme; purchased Carna biosciences 08-046
Method: as §2, §3

[7] = system: IL-2-stimulated HEK-Blue IL-2 reporter cells; assay: HEK-Blue IL-2 reporter assay (STAT5-inducible SEAP) for determining selectivity; type: cell-based; settings: 4 ng/mL human recombinant IL-2, 24 hours
Procedure, shortened: (§4)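 Cells were plated for 20-22 h, then pretreated with serially diluted compound for 60 min. They were stimulated for 24 h with 4 ng/mL human recombinant IL-2 or 50 ng/mL human recombinant IFNγ, and SEAP induction was read with QUANTI-Blue.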

[8] = system: IFNγ-stimulated HEK-Blue IFNγ reporter cells; assay: HEK-Blue IFNγ reporter assay (STAT1-inducible SEAP) for determining selectivity; type: cell-based; settings: 50 ng/mL human recombinant IFNγ, 24 hours, read-out: IFN-γ SEAP selectivity assay IC50
Procedure, shortened: as §4

T2 sequence (P23458 875-1153 limits assumed): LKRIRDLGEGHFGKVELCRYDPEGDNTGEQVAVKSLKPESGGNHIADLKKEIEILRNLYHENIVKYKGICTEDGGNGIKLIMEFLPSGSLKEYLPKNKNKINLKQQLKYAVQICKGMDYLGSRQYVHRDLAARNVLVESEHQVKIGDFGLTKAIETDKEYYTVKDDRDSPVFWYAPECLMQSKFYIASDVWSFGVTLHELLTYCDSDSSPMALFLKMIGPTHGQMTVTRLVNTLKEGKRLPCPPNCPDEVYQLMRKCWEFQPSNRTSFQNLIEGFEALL
T4 sequence (P52333 822-1111 limits assumed): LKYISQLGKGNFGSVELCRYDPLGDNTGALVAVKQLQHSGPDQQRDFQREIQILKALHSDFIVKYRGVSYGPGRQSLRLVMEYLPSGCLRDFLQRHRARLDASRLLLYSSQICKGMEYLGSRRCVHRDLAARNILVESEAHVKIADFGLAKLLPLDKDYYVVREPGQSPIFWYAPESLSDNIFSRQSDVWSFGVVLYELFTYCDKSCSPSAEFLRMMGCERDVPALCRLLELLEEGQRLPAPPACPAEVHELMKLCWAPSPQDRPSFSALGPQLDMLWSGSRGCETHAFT
T3 sequence (O60674 849-1124 limits assumed): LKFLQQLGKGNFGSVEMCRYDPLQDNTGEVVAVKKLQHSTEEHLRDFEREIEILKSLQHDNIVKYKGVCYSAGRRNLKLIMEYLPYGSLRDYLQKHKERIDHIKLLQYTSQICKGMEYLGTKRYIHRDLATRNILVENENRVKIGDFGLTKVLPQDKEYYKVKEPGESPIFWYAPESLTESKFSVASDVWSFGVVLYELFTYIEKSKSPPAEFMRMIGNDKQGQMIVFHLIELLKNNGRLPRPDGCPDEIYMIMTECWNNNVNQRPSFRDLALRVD

Compound	IC50 [1] [µM]	IC50 [2] [µM]	IC50 [3] [µM]	IC50 [4] [µM]	IC50 [5] [µM]	IC50 [6] [µM]	IC50 [7] [µM]	IC50 [8] [µM]
[2H]C([2H])([2H])NC(=O)c1nnc(NC(=O)C2CC2)cc1Nc1cccc2c1N(C)Cc1cn(C([2H])([2H])[2H])nc1-2 [Compound 20, 6-(cyclopropanecarboxamido)-N-(methyl-d3)-4-((5-methyl-2-(methyl-d3)-4,5-dihydro-2H-pyrazolo[4,3-c]quinolin-6-yl)amino)pyridazine-3-carboxamide]	< 0.03	< 0.03	> 1	> 1	> 1	> 1	0.3 to 1	0.03 to 0.3
CNC(=O)c1nnc(Nc2ccc(F)cn2)cc1Nc1cccc2c1N(C)Cc1cn(C)nc1-2 [Compound 12, (4-((2,5-dimethyl-4,5-dihydro-2H-pyrazolo[4,3-c]quinolin-6-yl)amino)-6-((5-fluoropyridin-2-yl)amino)-N-methylpyridazine-3-carboxamide)]	< 0.03	< 0.03	> 1	> 1	> 1	> 1	> 1	0.03 to 0.3
[2H]C([2H])([2H])NC(=O)c1cnc(NC(=O)C2CC2)cc1Nc1cccc2c1N(C)Cc1cn(C([2H])([2H])[2H])nc1-2 [Compound 19, 6-(cyclopropanecarboxamido)-N-(methyl-d3)-4-((5-methyl-2-(methyl-d3)-4,5-dihydro-2H-pyrazolo[4,3-c]quinolin-6-yl)amino)nicotinamide]	< 0.03	< 0.03	> 1	> 1	> 1	> 1	> 1	> 1
[2H]C([2H])([2H])NC(=O)c1cnc(NC(=O)C2(O)CC2)cc1Nc1cccc2c1N(C)Cc1cn(C)nc1-2 [Compound 21, 4-((2,5-dimethyl-4,5-dihydro-2H-pyrazolo[4,3-c]quinolin-6-yl)amino)-6-(1-hydroxycyclopropane-1-carboxamido)-N-(methyl-d3)nicotinamide]	0.03 to 0.3	0.03 to 0.3	> 1	> 1	> 1	> 1	> 1	> 1
[2H]C([2H])([2H])NC(=O)c1cnc(Nc2cc(C)nc(C)n2)cc1Nc1cccc2c1N(C)Cc1cn(C)nc1-2 [Compound 16, 4-((2,5-dimethyl-4,5-dihydro-2H-pyrazolo[4,3-c]quinolin-6-yl)amino)-6-((2,6-dimethylpyrimidin-4-yl)amino)-N-(methyl-d3)nicotinamide]	< 0.03	< 0.03	> 1	> 1	> 1	> 1	0.3 to 1	0.03 to 0.3
[2H]C([2H])([2H])NC(=O)c1cnc(Nc2cc(C)nc(C)n2)cc1Nc1cccc2c1OCc1cn(C)nc1-2 [Compound 9, 6-((2,6-dimethylpyrimidin-4-yl)amino)-N-(methyl-d3)-4-((2-methyl-2,4-dihydrochromeno[4,3-c]pyrazol-6-yl)amino)nicotinamide]	< 0.03	0.03 to 0.3	> 1	> 1	> 1	> 1	> 1	0.3 to 1
CNC(=O)c1nnc(Nc2ccc(F)cn2)cc1Nc1cccc2c1OCc1cn(C)nc1-2 [Compound 1, 6-((5-fluoropyridin-2-yl)amino)-N-methyl-4-((2-methyl-2,4-dihydrochromeno[4,3-c]pyrazol-6-yl)amino)pyridazine-3-carboxamide]	0.03 to 0.3	0.03 to 0.3	0.3 to 1	> 1	> 1	> 1	0.3 to 1	0.3 to 1
